From patent US9320745B2, “Use of cholest-4-en-3-one derivatives for obtaining a cytoprotective drug” (TROPHOS, priority 2006, dated 2016)

Tests used:
[1] = system: rabbit ventricular cardiomyocytes; assay: Apoptosis by annexin V marking in doxorubicin-exposed cardiomyocytes; type: cell-based; conditions: 3 hrs after doxorubicin, control 100%
Method: (§1) Isolated ventricular cells are obtained from New Zealand male rabbit hearts as described in A. d'Anglemont de Tassigny et al., Fund. Clin. Pharmacol., 18: pp. 531-38, 2004. Briefly, the rabbits (2.0-2.5 kg) are anaesthesized with a pentobarbital (50 mg/kg) solution and then receive heparin (200 IU/kg). The hearts are excised and immediately perfused, for 10-15 minutes by means of a Langendorff apparatus without recirculation with an oxygenated (calcium-free) tyrode isotonic solution (95%, 2-5% CO2) (in mM: NaCl 135, KCl 5.4, Na2PO4 0.33, MgCl2 1.0, HEPES 10, pH adjusted to 7.4 with 1N NaOH at 37° C., 280-300 mOsmol/kgH2O). Next, all the hearts were perfused for 3 minutes in a “recirculation” mode with the same calcium-free Tyrode solution (coronary flow rate, 10-15 mL/min) added with 1 mg/mL of type II collagenase and 0.28 mg/mL of type XIV protease. Finally all the hearts are perfused in a mode without recirculation with the same solution of Tyrode supplemented with 0.3 mM CaCl2 for 10 min. The left ventricle is removed and cut into small pieces; cell dissociation is achieved by mild mechanical stirring. Extracellular calcium is added by increments every 15 minutes, in order to reach a physiological concentration of 1.0 mM. The isolated myocytes are maintained in a medium without serum containing (in mM) NaCl 110, KCl 5.4, Na2PO4 0.33, NaHCO3 25, Glucose 5, MgCl2 0.8, CaCl2 1, pH adjusted to 7.4, right up to 1 h30 before experimentation.
Marking phosphatidylserine with annexin V was used as a quantitative method for measuring apoptosis by using the MiniMacs cell isolation kit (Miltenyi Biotec, Bergisch, Gladbach, Germany). Briefly, the cells exposing phosphatidylserine are marked with annexin V microbeads magnetically, and then passed into a column placed in a magnetic field. The marked cells (which have magnetically marked phosphatidylserine) are retained in the column whereas the non-marked ones (necrotic cells and non-apoptotic cells) are not retained. The column is removed from the magnetic field; the magnetically retained cells exposing phosphatidylserine are eluted as a positive fraction and counted with a Mallassez cell counter. The percentage of apoptotic cells is then referred to the initial number of cells.
(§2) Apoptosis is induced in isolated cardiomyocytes by exposing them for 3 to 8 hrs to 1 μM of doxorubicin added in an isotonic solution containing (in mM) NaCl 110, KCl 5.4, Na2PO4 0.33, NaHCO3 25, Glucose 5, MgCl2 0.8, CaCl2 1, pH adjusted to 7.4. Annexin V marking was carried out 3 hrs after the beginning of exposure to doxorubicin since this phenomenon appears very early in the apoptotic cascade. […] The contractility of cardiomyocytes was measured every hour during the 8 hrs of exposure to doxorubicin. […]

[2] = system: rabbit ventricular cardiomyocytes; assay: Contractile dysfunction test induced by doxorubicin (sarcomere shortening of isolated cardiomyocytes); type: cell-based
Method: as §1
The myocytes are transferred into a chamber at 37° C., continuously perfused and positioned on the stage of an inverted microscope. The chamber is perfused with a physiological buffer containing (in mM): NaCl-140; KCl 5.4; CaCl2 1; MgCl2 0.8; HEPES 10 and glucose 5.6 (pH=7.4; 290 mOsmol/kgH2O).
Contraction of the myocytes is induced once a second (1 Hz) with platinum field electrodes placed in the chamber and connected to a simulator. The images are captured continuously with a ×20 objective and transmitted to a CCD camera at a rate of 240 samples/s. […]
The myocytes were selected for the study according to the following criterion: a rod-like aspect with very apparent striations and no intracellular vacuola, no spontaneous contraction when they are stimulated with 1 mM Ca^2+, and with constant rest length and contraction amplitude. The length of the sarcomers was measured by a video image analysis program and the data were captured at a rate of 240 samples/s. […]
as §2, with “7.4.” for “7.4. Annexin V marking was carried out 3 hrs after the beginning of exposure to doxorubicin since this phenomenon appears very early in the apoptotic cascade.”

caspase-3 = assay: Apoptosis by caspase-3 activity measurement in doxorubicin-exposed cardiomyocytes; type: cell-based, rabbit; conditions: 8 hrs after exposure, control 18±9 fmol/min
Method: as §1
Caspase-3 activity is used as a quantitative method for measuring apoptosis. Briefly, the cells are lysed and the supernatant is used for caspase-3 activity measurement by using the AK-005 kit (Biomol Research Laboratories, Plymouth Meeting, Pa., USA). The fluorogenic substrate for measuring caspase-3 activity (DEVD) is marked with the fluorochrome, 7-amino-4-methyl coumarin (AMC) which produces […] fluorescence detectable in UV light at 360/460 nm for 210 min. AMC is released from the substrate by cleavage by caspase-3, the expression of the enzyme is expressed in fmol/min.
Apoptosis is induced in isolated cardiomyocytes by exposing them for 3 to 8 hrs to 1 μM of doxorubicin added in an isotonic solution containing (in mM) NaCl 110, KCl 5.4, Na2PO4 0.33, NaHCO3 25, Glucose 5, MgCl2 0.8, CaCl2 1, pH adjusted to 7.4. Annexin V marking was carried out 3 hrs after the beginning of exposure to doxorubicin since this phenomenon appears very early in the apoptotic cascade. Caspase-3 activity measurements were conducted 8 hrs after exposure to doxorubicin since this phenomenon takes place later in the apoptosis phenomenon. The contractility of cardiomyocytes was measured every hour during the 8 hrs of exposure to doxorubicin. After all the treatments, the cells were compared with control cardiomyocytes not exposed to doxorubicin. […]

monkeys = assay: Toxicological study in monkeys; type: in vivo; conditions: oral, increasing daily doses up to 1,500 mg/kg over 10 days
mice = assay: Toxicological study in mice; type: in vivo; conditions: oral, sub-cutaneous, intra-peritoneal and intravenous routes, doses up to 300 mg/kg/day, daily, as far as 28 days
Male CD1 adult mice = assay: In vivo model of acute hepatotoxicity induced by Jo2 anti-Fas antibody (ALAT assay, survival)
Source text: An acute hepatic damage model may be induced by a single injection of the Jo2 anti-Fas antibody (Ogasawara et al., Nature, August 1993), producing severe hepatic damages and resembling viral, auto-immune or drug-induced hepatitis.
Alanine Aminotransferase (ALAT) also called Serum Glutamic Pyruvic Transaminase (SGPT) is an enzyme present in hepatocytes.
The conducted experimentation consisted in intoxicating animals with Jo2 followed by an assay of ALATs and of testing the cholest-4-en-3-one oxime capability of protecting hepatocytes.
Male CD1 adult mice from the breeder “Elevage Janvier”, (Le Genest-Saint-Isle, France) were used. The animals were identified individually and had free access to water and food.
The stock solution of monoclonal hamster anti-mouse CD95 (Fas) antibody called Jo2, from Pharmingen (BD Biosciences, ref. 554254 batch 66081) is at a concentration of 1 mg/mL in water. The dilutions used are produced in 0.9% sodium chloride in water.
The desired amount of cholest-4-en-3-one oxime is weighed and milled into a fine powder, and then suspended (60 mg/ml) in maize oil. The compound is administered orally (by force-feeding) at a concentration of 5 ml/kg.
A pre-treatment with cholest-4-en-3-one oxime is carried out at a dose of 300 mg/kg per oral administration 4 hrs before administering the Jo2 antibody. […]

shortening of the peak relatively to the base line ([2]; 1 μM doxorubicin alone, after 4 hours of exposure, control −19.49±2.06%, n=5) [%]	Compound	change in % of annexin V marking ([1]; doxorubicin + 0.3 μM compound) [%]	change in % of annexin V marking ([1]; doxorubicin + 1 μM compound) [%]	change in % of annexin V marking ([1]; doxorubicin + 3 μM compound) [%]	shortening of the peak relatively to the base line ([2]; 0.3 μM compound, 15 min pretreatment, 1 μM doxorubicin, after 4 hrs of exposure) [%]	shortening of the peak relatively to the base line ([2]; 1 μM compound, 15 min pretreatment, 1 μM doxorubicin, after 4 hrs of exposure) [%]	shortening of the peak relatively to the base line ([2]; 3 μM compound, 15 min pretreatment, 1 μM doxorubicin, after 4 hrs of exposure) [%]	caspase-3 activity (caspase-3; doxorubicin + 0.3 μM compound) [fmol/min]	caspase-3 activity (caspase-3; doxorubicin + 1 μM compound) [fmol/min]	caspase-3 activity (caspase-3; doxorubicin + 3 μM compound) [fmol/min]	toxicity (monkeys)	toxicity (mice)	ALAT activity (U/L) Mean +/− SEM (n) (Male CD1 adult mice; 300 mg/kg oral 4 hrs before Jo2 125 μg/kg i.p., measured 24 hrs after Jo2, control 2,586 ± 474, p = 0.0037)	death of mice within 24 hrs following the Jo2 injection (Male CD1 adult mice; 300 mg/kg oral, 4 hrs before the Jo2 antibody)	change in % of annexin V marking ([1]; 1 μM doxorubicin alone) [%]	caspase-3 activity (caspase-3; 1 μM doxorubicin alone) [fmol/min]
	CC(C)CCC[C@@H](C)[C@H]1CC[C@H]2[C@@H]3CCC4=CC(=NO)CC[C@]4(C)[C@H]3CC[C@]12C [cholest-4-en-3-one oxime]	130	121	115.5	−25.35±0.18	−15.66±5.72	−13.95±3.17	33 ± 9	18 ± 8	11 ± 4	did not reveal any toxicity	did not show any significant toxicity	1,136 ± 175 (20) U/L	prevent the death of mice		
−53.20±7.70	COc1cccc2c1C(=O)c1c(O)c3c(c(O)c1C2=O)C[C@@](O)(C(=O)CO)C[C@@H]3O[C@H]1C[C@H](N)[C@H](O)[C@H](C)O1 [doxorubicin, reference compound]														291	120 ± 15
